In PMC7077276 (Viruses, 2020):
“Also recorded” adds a separate entry of the source.

Experiments:
[1] = test system: PCV2 dcapsid mutants bound to heparin column; experiment: Heparin column chromatography of dcapsid mutants; assay type: binding, porcine circovirus type 2 (PCV2)
[2] = molecular target: T1, PCV2 dcapsid bound to Heparin-Sepharose (Porcine circovirus 2, UniProt O56129); experiment: Heparin column chromatography (competitive elution of dcapsid); assay type: binding, porcine circovirus type 2 (PCV2)
T1 construct: hexahistidine (N); made in house; host or cells: Escherichia coli BL21 (DE3)
T1 sequence (O56129 42-233): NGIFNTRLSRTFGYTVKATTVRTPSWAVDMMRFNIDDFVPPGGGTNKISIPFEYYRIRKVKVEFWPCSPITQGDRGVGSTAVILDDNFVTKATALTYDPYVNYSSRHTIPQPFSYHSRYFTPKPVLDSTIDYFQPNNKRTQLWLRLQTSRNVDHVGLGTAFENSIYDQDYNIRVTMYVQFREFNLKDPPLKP

[3] = molecular target: T2, PCV2 capsid protein (dcapsid) (Porcine circovirus 2, UniProt O56129); experiment: Microscale thermophoresis assay (MST), wild-type dcapsid; assay type: binding, porcine circovirus type 2 (PCV2)
T2 construct: hexahistidine (N); made in house; host or cells: Escherichia coli BL21 (DE3)
T2 sequence (O56129 42-233): as above

[4] = test system: PCV2; experiment: Infectivity assay (titer, immunoblotting, qPCR, IFA); assay type: cell-based, porcine circovirus type 2 (PCV2); conditions: for anti-infective (antiviral) effect on PCV2: PK-15 cells, MOI = 1.0
[5] = molecular target: T3, PCV2 dcapsid mutant D70A (Porcine circovirus 2, UniProt O56129, D70A); experiment: Microscale thermophoresis assay (MST), dcapsid mutant D70A; assay type: binding, porcine circovirus type 2 (PCV2); conditions: read-out: Kd between EGCG and capsid mutant D70A
T3 construct: hexahistidine (N); made in house; host or cells: Escherichia coli BL21 (DE3)
T3 sequence (O56129 42-233 D70A): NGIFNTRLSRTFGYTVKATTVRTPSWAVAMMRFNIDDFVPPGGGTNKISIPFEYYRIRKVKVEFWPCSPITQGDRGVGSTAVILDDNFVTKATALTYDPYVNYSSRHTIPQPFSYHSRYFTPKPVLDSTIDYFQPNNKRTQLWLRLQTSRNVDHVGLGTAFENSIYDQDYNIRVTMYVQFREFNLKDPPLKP

[6] = test system: PCV2 mutant viruses; experiment: Infectivity assay of rescued PCV2 mutant viruses; assay type: cell-based, porcine circovirus type 2 (PCV2); conditions: 100 μM, whole infective process, titers at 72 hpi
[7] = test system: PK-15 cells; experiment: Cytotoxicity assay (CCK8); assay type: cell-based, Porcine
[8] = test system: PCV2 virions; experiment: Binding assay of virions to PK-15 cells (qPCR, flow cytometry); assay type: cell-based, porcine circovirus type 2 (PCV2); conditions: 100 μM, binding 1 h at 4 °C, MOI = 5.0
[9] = molecular target: T4, PCV2 dcapsid mutant R51A (Porcine circovirus 2, UniProt O56129, R51A); experiment: Microscale thermophoresis assay (MST), dcapsid mutant R51A; assay type: binding, porcine circovirus type 2 (PCV2); conditions: read-out: Kd between EGCG and capsid mutant R51A
T4 construct: hexahistidine (N); made in house; host or cells: Escherichia coli BL21 (DE3)
T4 sequence (O56129 42-233 R51A): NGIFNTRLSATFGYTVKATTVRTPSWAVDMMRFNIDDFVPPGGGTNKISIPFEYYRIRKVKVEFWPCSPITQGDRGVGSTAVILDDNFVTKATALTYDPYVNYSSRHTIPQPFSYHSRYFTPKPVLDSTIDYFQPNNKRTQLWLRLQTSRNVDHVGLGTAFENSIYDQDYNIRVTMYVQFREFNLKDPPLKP

[10] = molecular target: T5, PCV2 dcapsid mutant D78A (Porcine circovirus 2, UniProt O56129, D78A); experiment: Microscale thermophoresis assay (MST), dcapsid mutant D78A; assay type: binding, porcine circovirus type 2 (PCV2); conditions: read-out: Kd between EGCG and capsid mutant D78A
T5 construct: hexahistidine (N); made in house; host or cells: Escherichia coli BL21 (DE3)
T5 sequence (O56129 42-233 D78A): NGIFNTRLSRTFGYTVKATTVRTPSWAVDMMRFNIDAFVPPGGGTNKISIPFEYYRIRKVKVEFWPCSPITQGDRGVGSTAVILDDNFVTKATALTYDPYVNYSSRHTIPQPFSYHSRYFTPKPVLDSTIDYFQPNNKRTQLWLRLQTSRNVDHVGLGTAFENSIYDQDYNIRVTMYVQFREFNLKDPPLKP

[11] = molecular target: T6, PCV2 dcapsid mutant G54A (Porcine circovirus 2, UniProt O56129, G54A); experiment: Microscale thermophoresis assay (MST), dcapsid mutant G54A; assay type: binding, porcine circovirus type 2 (PCV2); conditions: read-out: Kd between EGCG and capsid mutant G54A
T6 construct: hexahistidine (N); made in house; host or cells: Escherichia coli BL21 (DE3)
T6 sequence (O56129 42-233 G54A): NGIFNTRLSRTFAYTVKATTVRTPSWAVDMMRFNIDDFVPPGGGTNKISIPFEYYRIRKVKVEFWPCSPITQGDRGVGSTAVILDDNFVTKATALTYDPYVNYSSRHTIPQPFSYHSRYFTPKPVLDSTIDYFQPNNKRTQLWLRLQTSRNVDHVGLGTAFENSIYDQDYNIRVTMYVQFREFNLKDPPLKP

[12] = test system: PCV2; experiment: Time of addition and dilution experiment; assay type: cell-based, porcine circovirus type 2 (PCV2); conditions: for inhibitory effect of post-infection treatment: immunoblotting at 72 hpi
[13] = molecular target: T7, PCV2 dcapsid mutant N75A (Porcine circovirus 2, UniProt O56129, N75A); experiment: Microscale thermophoresis assay (MST), dcapsid mutant N75A; assay type: binding, porcine circovirus type 2 (PCV2); conditions: read-out: Kd between EGCG and capsid mutant N75A
T7 construct: hexahistidine (N); made in house; host or cells: Escherichia coli BL21 (DE3)
T7 sequence (O56129 42-233 N75A): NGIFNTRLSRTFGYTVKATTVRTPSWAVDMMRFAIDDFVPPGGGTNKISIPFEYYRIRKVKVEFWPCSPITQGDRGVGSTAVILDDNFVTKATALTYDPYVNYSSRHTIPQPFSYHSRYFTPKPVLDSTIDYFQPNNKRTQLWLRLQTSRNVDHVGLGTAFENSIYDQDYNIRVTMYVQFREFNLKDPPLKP

[14] = molecular target: T8, PCV2 dcapsid mutant R73A (Porcine circovirus 2, UniProt O56129, R73A); experiment: Microscale thermophoresis assay (MST), dcapsid mutant R73A; assay type: binding, porcine circovirus type 2 (PCV2); conditions: read-out: Kd between EGCG and capsid mutant R73A
T8 construct: hexahistidine (N); made in house; host or cells: Escherichia coli BL21 (DE3)
T8 sequence (O56129 42-233 R73A): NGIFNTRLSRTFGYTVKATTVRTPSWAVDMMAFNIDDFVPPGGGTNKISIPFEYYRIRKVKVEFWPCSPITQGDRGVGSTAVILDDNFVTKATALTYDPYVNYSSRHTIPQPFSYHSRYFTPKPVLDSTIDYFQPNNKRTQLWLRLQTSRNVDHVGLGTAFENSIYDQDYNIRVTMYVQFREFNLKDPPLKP

heparin [reference compound]
eluted level of R51A and R73A mutants ([1]; 0.5 mg/mL heparin): most significant eluted reduction

Oc1cc(O)c2c(c1)O[C@H](c1ccc(O)c(O)c1)[C@H](O)C2 [EC, epicatechin, reference compound]
dcapsid protein fraction eluted from heparin column ([2]; competitor 0.05 mg/mL): 10.33 ± 4.50% | Kd [3]: 951.3 ± 6.81 µM | lower affinity to capsid than EGCG ([3]; MST, ratio of Kd): 10 fold | anti-infective (antiviral) effect on PCV2 ([4]; 100 μM): no considerable anti-infective effect; also recorded: did not exert an antiviral effect

O=C(O[C@@H]1Cc2c(O)cc(O)cc2O[C@@H]1c1cc(O)c(O)c(O)c1)c1cc(O)c(O)c(O)c1 [EGCG, Epigallocatechin gallate]
Kd [5]: 863.7 ± 7.23 µM | antiviral effect on PCV2 (D70A) and PCV2 (D78A) [6]: could not be detected | antiviral effect on PCV2 (G54A), PCV2 (N75A), PCV2 (WT) and PCV2 (A135A) [6]: could inhibit the infectivity | cytotoxicity to PK-15 cells ([7]; 100 μM, 24 h, 72 h and 120 h): did not generate significant cytotoxicity; also recorded: without causing significant toxicity | cytotoxicity to PK-15 cells ([7]; 200 μM): could produce cytotoxicity | dcapsid protein fraction eluted from heparin column ([2]; competitor 0.05 mg/mL): 42.33 ± 3.52% | dcapsid protein fraction eluted from heparin column ([2]; competitor 0.5 mg/mL): 90.00 ± 5.29% | bound PCV2 particles (qRT-PCR) [8]: decrease significantly | proportion of PCV2-attached cells (flow cytometry) ([8]; untreated ~70%): ~ 55% | Kd [3]: 98 ± 4.76 µM | Kd [9]: 591 ± 5.57 µM | Kd [10]: 1061 ± 8.08 µM | Kd [11]: 99.3 ± 9.29 µM | eluted level of R51A, D70A, R73A and D78A mutants ([1]; 0.5 mg/mL EGCG, especially D70A and D78A): remarkably reduced | inhibitory effect of post-infection treatment ([12]; 100 μM for 4 h or 12 h after PCV2 infection): significant inhibitory effect could not be detected | inhibitory effect of post-infection treatment ([12]; 100 μM for 24 h after PCV2 infection): only a slight effect | inhibitory effect, pre-treated cells group ([12]; cells pre-exposed 60 min at 37 °C, then infected, 72 hpi, immunoblotting, qPCR, titer): inhibitory effect could not be detected | antiviral effect in dilution assay ([12]; virions pretreated with 100 μM, diluted 10-fold before inoculation, immunoblotting, qPCR, titer): antiviral effect could still be detected | antiviral effect, pre-treated virions group ([12]; virus premixed with 10 μM, 72 hpi): non-sensitive | antiviral effect, pre-treated virions group ([12]; virus premixed with 100 μM, 72 hpi): prominent antiviral effect | Kd [13]: 164 ± 5.29 µM | inhibitory effect of PCV2 infection (immunoblotting, qPCR) ([4]; 10 μM, 72 hpi): still detectable | viral capsid protein expression (immunoblotting) ([4]; 100 μM, 72 hpi): reduced level | viral genome copy number (qPCR) ([4]; 100 μM, 72 hpi): reduction | quantity of PCV2 infected cells (IFA) ([4]; 100 μM, MOI = 1.0, vs. without treatment): obviously lower | anti-infective (antiviral) effect on PCV2 ([4]; 100 μM): exhibited an inhibitory effect | virus titer of PCV2 infected cells ([4]; 100 μM, whole infective process, various time points, vs. without treatment): significant decrease | Kd [14]: 971 ± 9.54 µM
